Laboratory results: US20240261412A1, “NUTRACEUTICAL COMPOSITION FOR DELIVERY OF HYDROPHILIC AND HYDROPHOBIC BIOACTIVE SUBSTANCES” (AKAY NATURAL INGREDIENTS PRIVATE LIMITED, priority 2021, published 2024)
Where “and” joins values, the source holds several entries; their conditions need not be identical. Identical values can stand only once. One block for each molecule: values may come before it.

What was measured:
[1] = In vitro release kinetics of trans-resveratrol formulation (USP dissolution apparatus); format: physicochemical; conditions: pH 6.5 and 2, FIG. 2
Method: Briefly, a 50 mg of RF-20 was dispersed in a 10 mL solution of appropriate pH and kept under constant stirring at 37±0.5° C. […] The amount of resveratrol content in the solution was determined by HPLC, with the help of a calibration curve. The experiment was performed in triplicate and the mean cumulative percentage of released resveratrol was calculated and plotted against time to follow the release kinetics.

[2] = Pharmacokinetics study of resveratrol, randomized double-blinded crossover, capsules and sachets; format: in vivo, human; conditions: for Tmax: human, plasma, read-out: Free Resveratrol Tmax
Method: The bioavailability study in human subjects was carried out in two phases. In the first phase, identical hard shell gelatin capsules of either the trans-resveratrol powder formulation obtained in example 1 (RF-20) or unformulated resveratrol (U-tRES) containing 80 mg of trans-resveratrol were provided. […] The unformulated capsule contained 80±5 mg of trans-resveratrol with 98.2% purity isolated from Japanese Knotweed (U-tRES) by an ethanol/water extraction process and about 300 mg of microcrystalline cellulose as an excipient. In the second phase, the same dose of either the trans-resveratrol powder formulation or the unformulated resveratrol was administered in identical stick packs, each weighing about 3 g. Maltodextrin was used as an additive to make up the sachet packs to 3 g and the participants were asked to drink one sachet with about 240 mL of water. The double-blinded, placebo-controlled, randomized pharmacokinetic study was conducted using both capsules and sachets, to investigate the influence of delivery form on the relative bioavailability of trans-resveratrol from RF-20 and U-tRES. Each dose of either the resveratrol powder formulation or the unformulated resveratrol delivered 80±5 mg of trans-resveratrol. […] The blood samples were analysed by tandem mass spectrometry using QTRAP technology to detect, confirm and quantify ‘free’ resveratrol content in biomatrices.

[3] = Pharmacokinetics of fisetin powder formulation in healthy human subjects; format: in vivo; conditions: human plasma
Method: The bioavailability of the fisetin formulation was evaluated in healthy human subjects. It has been evaluated in a single dose, randomized, comparative, double-blinded crossover design was adopted to evaluate the difference in the bioavailability and pharmacokinetic parameters (Cmax, AUC, Tmax, and t½) of free (unconjugated) fisetin and geraldol following the oral administration of a fisetin formulation obtained in example 6 (FF-20) and unformulated fisetin (UF). The participants were provided with a capsule contained 500±25 mg of UF or FF-20. Around 50 mg of microcrystalline cellulose was present in each capsule as a flow-improving excipient. Following administration, blood samples (2 mL) were collected 5 min (t0) prior to oral dosing and subsequently at 0.5, 1, 2, 3, 5, 8, and 12 h after oral ingestion of UF or FF-20, using an indwelling venous cannula. Participants were provided with a standardized breakfast, lunch, snack, and dinner respectively at 1, 4, 8, and 12 h after dosing. Plasma was separated by centrifugation at 11,950×g for 10 min at 4° C. and stored for a maximum of two days at −20° C. for analysis. Fisetin and geraldol in plasma samples were extracted and subjected to UPLC-ESI-MS/MS analyses.

[4] = In vitro release kinetics of calcium ascorbate formulation; format: physicochemical; conditions: stomach and intestinal pH conditions, FIG. 5
Method: The in vitro release of ascorbic acid from the calcium ascorbate powder formulation was determined in water containing 1.6 mmol of the disodium salt of EDTA (ethylenediamine tetra acetic acid) at pH 2.0 and 6.8 using 0.1 M HCl and phosphate buffer respectively. 500 mg of calcium ascorbate powder formulation was mixed with 500 mL of EDTA solution to obtain the calcium ascorbate solution. The pH of the calcium ascorbate solution was adjusted and agitated at 100 rpm. About 1 mL of the solution was carefully withdrawn at regular intervals of 0, 1, 2, 4, 6, and 8 h and made up to 100 mL with water. The ascorbate content was then analysed by HPLC method. Analysis was performed in triplicate and the mean cumulative percentage of released ascorbate was calculated and plotted against time to study the in vitro release kinetics of CAAS from the fenugreek galactomannan matrix.

[5] = Pharmacokinetics of calcium ascorbate formulation in healthy volunteers; format: in vivo, human; conditions: single oral dose of 1000 mg
Text: The relative bioavailability of the calcium ascorbate formulation obtained in Example 5 (FC+) with respect to the unformulated CAAS (UF-CAAS) powder with >98% purity was investigated in healthy volunteers.
The study was designed as a randomized, double-blinded, single dose study on healthy volunteers. Healthy volunteers (males and females) (n ¼14) aged 18 to 65 years having BMI between 18-25 kgm^−2 were enrolled for the study. Those who were having a history of gut disorders such as irritable bowel syndrome, ulcerative colitis, gastro-oesophageal reflux.
Selected participants were randomized into one of the three treatment arms consisting of three single dose treatments, with either formulated (tablets and capsules) or unformulated (UFCAAS) tablets.
Tablets and hard-shell two-piece hypromellose capsules of both FC+ and UF-CAAS were prepared in such a way that each tablet weighs about 1000±25 mg and each capsule contains 500±25 mg with similar content of CAAS. The study participants were orally administered with a single dose of 1000 mg tablet or capsule as per the study protocol, along with 200±10 mL of normal drinking water.
The quantification of calcium ascorbate in plasma was carried out by a validated HPLC method.

[6] = human plasma, capsule, 80 mg trans-resveratrol per dose
[7] = human plasma, sachet, 80 mg trans-resveratrol per dose

solubility in release medium [1]: insoluble
Tmax ([2]; both sexes, oral, 80 mg, human plasma, capsule, 80 mg trans-resveratrol per dose): 1.07 ± 0.26 h
Tmax ([2]; both sexes, oral, 80 mg, human plasma, sachet, 80 mg trans-resveratrol per dose): 1.21 ± 0.42 h
half-life ([2]; both sexes, oral, human plasma, sachet, 80 mg trans-resveratrol per dose, read-out: Free Resveratrol t1/2 (converted)): 94.8 ± 39 min
time after which plasma levels were undetectable ([2]; free resveratrol, sachet): 3 h
free resveratrol AUC0-24 h ([2]; human plasma, capsule, 80 mg): 32.05 ± 9.97 ng·h/mL
Free Resveratrol AUC0-24 [2, 6]: 32.05 ng·h/mL
Free Resveratrol Cmax [2, 6]: 16.34 ng/mL
Free Resveratrol t1/2 [2, 6]: 1.58 h
Free Resveratrol Cmax ([2]; human plasma, capsule, 80 mg trans-resveratrol per dose, listed as UtRES): 16.34 ± 5.67 ng/mL
Free Resveratrol AUC0-24 [2, 7]: 31.93 ng·h/mL
Free Resveratrol Cmax [2, 7]: 15.07 ± 5.10 ng/mL and 15.07 ng/mL
Molecule: Oc1ccc(/C=C/c2cc(O)cc(O)c2)cc1 [U-tRES, trans-resveratrol]
tolerability (side effects or adverse events) ([2]; n=16, both phases, 80±5 mg trans-resveratrol per dose): without any significant side effects or adverse events

Tmax ([3]; 500 mg, single oral dose): 52.8 min
Cmax ([3]; 500 mg, single oral dose, normalized for the higher fisetin intake in UF): 9.97 ng/mL
AUC(0-t) ([3]; 500 mg, single oral dose, normalized for the higher fisetin intake in UF, read-out: Fisetin AUC0-12): 12.7 ng·h/mL
half-life ([3]; 500 mg, single oral dose, read-out: Fisetin t1/2 (converted)): 68.4 min
time after dosing up to which fisetin levels were quantifiable [3]: 2 h
Molecule: O=c1c(O)c(-c2ccc(O)c(O)c2)oc2cc(O)ccc12 [UF, fisetin]

Molecule: calcium ascorbate [UF-CAAS]
in vitro release behaviour [4]: sustained release
AUC (plasma ascorbate) [5]: 311.4 ± 63.87^ μM · h/mL
MRT (plasma ascorbate) [5]: 22.67 ± 2.02 h
T1/2 (plasma ascorbate) [5]: 3.6 h
Tmax (plasma ascorbate) [5]: 1 h
Cmax ([5]; read-out: Cmax (plasma ascorbate)): 51.7 ± 21 µM
